Columns and labels:
[1] = test system: ovarian carcinoma and malignant melanoma; experiment: Combination drug treatment cell growth assay, 72 h; assay type: cell-based
Experimental: Drugs were purchased from Selleck Chem (Houston, Tex.) and LC Labs (Woburn, Mass.). Cells were grown as described by manufacturers' guidelines. […] For cell growth assays, 5000 cells were plated per well in a 96-well plate, treated with drugs the following day, and counted at 72 h according to either a rezasurin assay (PrestoBlue; Life Technologies, Grand Island, N.Y.) using manufacturer's guidelines, or by flow cytometry following trypsinization and immediate analysis on an LSR-II (BD Biosciences, San Jose, Calif.).

AXL pY = experiment: Short term p-AXL up-regulation (bead-based immunoassay); assay type: cell-based; conditions: 2 h; MDAMB231
From the text: pTyr-RTK measurements used bead-based immunocapture with a pan-pTyr detection antibody (EMD Millipore, Billerica, Mass.). Unless otherwise stated, immunoassays followed manufacturer protocols. Bead-based immunoassays were routinely normalized according to the micro BCA protein assay (Pierce) or cell count (ViCell). ADAM17 (pThr^735) and ADAM10 western blot Abs were from Sigma. Anti-phospho Histone H3 (Ser10) for measuring mitotic index was from EMD Millipore, (Billerica, Mass.). GAPDH (glyceraldehyde-3-phosphate dehydrogenase) and α-actinin were used for Western blotting and purchased from Cell Signaling Technology (Danvers, Mass.). APP Ab was from Abcam (Cambridge, Mass.). Live-cell immunostaining was performed using R&D Systems (Minneapolis, Minn.) Abs. SiRNAs, including non-targeting control siRNA, were packaged as SMARTpool ON-TARGETplus and used with DharmaFECT4 (Thermo Scientific, Tewksbury, Mass.). For ADAM10/17 western blots, lysis was performed with 50 mM tris-HCl (pH 7.5), 10% glycerol, 150 mM NaCl, and 1% NP-40, with complete protease (Roche, Nutley, N.J.) and phosphatase (Boston BioProducts, Ashland, Mass.) inhibitors added immediately before use.

sheddase substrates = experiment: Supernatant accumulation of sheddase substrates (ELISA, bead-based immunoassay); conditions: for supernatant RTK accumulation: multiple cancer types
Experimental: The following inhibitors were used in FIG. 1H, at the following concentrations: metalloproteinase inhibitor BB94 (10 μM; Tocris Bioscience), p38 inhibitor SB203580 (20 μM; Selleck Chem), MEK1/2 inhibitor PD0325901 (10 μM; LC Labs), Met/AXL inhibitor XL-880 (5 μM; Selleck Chem), MEK1/2 inhibitor U0126 (10 μM; Selleck Chem), MEK1/2 inhibitor AZD6244 (10 μM; Selleck Chem), Aurora kinase inhibitor VX-680 (10 μM; Selleck Chem), PI3K inhibitor LY294002 (10 μM; Selleck Chem), JNK1/2 inhibitor JNK-IN-8 (3 μM; courtesy Nathaniel Gray, Harvard Medical School), JNK inhibitor SP600125 (10 μM; LC Labs), EGFR inhibitor gefitinib (1 μM; LC Labs), EGFR inhibitor erlotinib (1 μM; LC Labs), JNK inhibitor TCS-6o (1 μM; Tocris Bioscience), Abl inhibitor imatinib (1 μM; LC Labs), EGFR/HER2 inhibitor lapatinib (1 μM; LC Labs), AXL inhibitor R428 (3 μM; Selleck Chem), Alk5 inhibitor ALX-270-448 (5 μM; Enzo life sciences), AXL/MET inhibitor MP470 (5 μM; Selleck Chem), myosin light chain kinase inhibitor ML7 (1 μM; Sigma), and glycogen synthase kinase 3b inhibitor SB216763 (10 μM; Selleck Chem) Inhibitor concentrations were chosen based roughly on exceeding previously published Ki and IC50 values. The ADAM-10 inhibitor pro-ADAM-10 was from Biozyme, Inc. (St. Joseph, Mo.) and was used at 4 μM.
AXL, MET, TNFR1, and EGF-ligand supernatant measurements were performed using duo-set ELISA kits (R&D Systems, Minneapolis, Minn.). Total RTK measurements for HER2 and HER4 were performed using bead-based immunoassays (EMD Millipore, Billerica, Mass.).
For quantification of supernatant protein levels, cell supernatant was collected at the indicated time-point, spun for 5 min at 300 g, and frozen at −80° C. for future use. Supernatants were routinely normalized to cell count, determined via trypsinization and ViCell (Beckman Coulter, Brea, Calif.), and volumes were kept consistent across treatments.
As shown in FIG. 3A-3B, MDA-MB231 cells were treated with siRNA as described above and were seeded in 96-well plates at equal 90% confluency. Media was changed at 48 h post-transfection, and 24 h later supernatant was collected and cells were analyzed by live-cell immunostaining. For proADAM10 treatment, cells were seeded in 96-well plates at 90% confluency, treated with inhibitor or buffer control the following day, and supernatant was collected 24 h later.

surface AXL = conditions: 24 hours; 10 cell lines; more in lines with AXLi/MEKi synergy
Experimental: Cells were trypsinized, rinsed in 4° C. phospho-buffered saline (PBS)+3% FBS, incubated with 1° Ab (i.e., primary antibody) in PBS+3% FBS for 1 h, rinsed, and fixed overnight in PBS+1% formaldehyde at 4° C. The following day, cells were rinsed, incubated with 2° Ab (i.e., secondary antibody) conjugated to either Alexa647 or Alexa546, rinsed, and analyzed by flow cytometry. Fold-change was determined after subtracting the median fluorescence from control cells stained with the IgG control antibody.

panel of cell lines = experiment: Proliferation/cytotoxicity cell count by flow cytometry; assay type: cell-based; conditions: individual drug treatment; rough approximation
Experimental: Proliferation and cytotoxicity were assessed by gently rinsing cells, trypsinizing for 15 min, and immediately counting cells by flow-cytometry. Live/dead staining routinely confirmed the majority (>98%) of counted cells to be alive using this procedure. Synergy was calculated using the model of Bliss independence (Bliss, C. I. The toxicity of poisons applied jointly Annals of applied biology 26, 585-615 (1939)), reported herein as the ratio of [observed combination effect size]/[predicted combination effect size], such that values >1 indicate super-additive drug effect, or synergy, and values <1 indicate antagonism. Drug concentrations for synergy measurements were chosen to roughly approximate the IC30 value averaged across the panel of cell lines for the individual drug treatments, and were 20 μM U0126, 7 μM PD325901, and 200 nM R428.

mitotic index = experiment: Cell cycle analysis (mitotic index by FACS); assay type: cell-based
Experimental: Cells were trypsinized, rinsed in 4° C. PBS, fixed in 70% 4° C. ethanol overnight, rinsed, and permeabilized in 0.1% Triton-X-100. Cells were then blocked for 1 h in PBS+3% FBS, incubated with anti-phospho-Histone H3 (pSer^10) for 1 h, rinsed, incubated with Alexa647-conjugated 2° Ab, and again rinsed. Lastly, cells were finally incubated at 37° C. for 1 h with 40 μg/ml propidium iodide and 100 μg/ml RNaseA, and again rinsed. Mitotic index was calculated by interpreting DNA-content histograms as described previously (Watson, J. V., Chambers, S. H. & Smith, P. J. A pragmatic approach to the analysis of DNA histograms with a definable G1 peak. Cytometry 8, 1-8 (1987)) in Matlab (Mathworks, Natick, Mass.) and gating for G2/M phase cells with high p-Histone-H3 staining.

p-JNK = experiment: Short term BB94-elicited downstream phosphosignaling (bead-based immunoassay); assay type: cell-based; conditions: 2 h
[2] = test system: AXL association with MET and HER2; experiment: RTK cross-linking and bead-based co-I.P.; assay type: cell-based; conditions: 2 h; MDAMB231
Experimental: MDA-MB231 cells were plated at 90% confluency on three 10-cm plates for each condition, serum starved for 4 h the following day, and treated with inhibitor in serum-free media for 2 h. Cells were then cross-linked with 1 mM EGS for 30 min at 4° C., lysed. Receptor cross-linking was measured using a modified MET and HER2 Luminex Bioplex assay, as previously described (Meyer, A. S., Miller, M. A., Gertler, F. B., and Lauffenburger, D. A. (2013). The receptor AXL diversifies EGFR signaling and limits the response to EGFR-targeted inhibitors in triple-negative breast cancer cells. Sci Signal 6, ra66).

MDAMB-231 = experiment: Loewe synergy of MEKi/AXLi cell count, with or without BB94; assay type: cell-based; conditions: 72 h; addition of 10 uM BB94
Experimental: (§1) Drugs were purchased from Selleck Chem (Houston, Tex.) and LC Labs (Woburn, Mass.). Cells were grown as described by manufacturers' guidelines. OVCA-429 were grown in RPMI+10% FBS. To calculate Loewe synergy, a computational model was used (Greco, W. R., et al., Pharmacol Rev., 47(2):331-85 (1995)) and the synergy term a was computationally inferred using Matlab (Mathworks; Natick, Mass.). Statistical significance was determined by leave-one-out jackknife error estimation (Efron, B. and Gong, G., Amer Stat.; 37(1):36-48 (1983)). For both MDAMB-231 and OVCA-429 synergy calculations, the modeling was fit to data from treatment at the MEKi concentrations of 7 μM, 2 μM, 0.7 μM, and 0.02 μM and R428 concentrations of 1.5 μM, 0.75 μM, 0.38 μM, and 0.19 μM. For cell growth assays, 5000 cells were plated per well in a 96-well plate, treated with drugs the following day, and counted at 72 h according to either a rezasurin assay (PrestoBlue; Life Technologies, Grand Island, N.Y.) using manufacturer's guidelines, or by flow cytometry following trypsinization and immediate analysis on an LSR-II (BD Biosciences, San Jose, Calif.).

[3] = test system: OVCA-429 ovarian cancer cells; experiment: as above; assay type: cell-based; conditions: 72 h; addition of 10 uM BB94
Experimental: as §1

MDA-MB231-LM2 cells = experiment: Orthotopic xenograft model of TNBC: tumor growth, metastasis, immunostaining, plasma receptors; assay type: in vivo, mice; conditions: primary tumors, 21 days after treatment
Experimental: For orthotopic mammary transplant assays, 6-week-old female NOD/SCID-gamma mice (JAX) were anesthetized by intraperitoneal (i.p.) injection of 125-250 mg/kg body weight of Avertin (reconstituted in PBS), followed by i.p. injection of 100 μL, of 12 μg/mL buprenorphine for analgesia. A small incision was made on the right flank, and 250,000 MDA-MB231-LM2 cells in 25 μL, of HBSS were injected into the right #4 fat pad using a 25-μL Hamilton syringe. Mice received three additional i.p. injections of 100 μL, of 12 μg/mL buprenorphine at 12 h intervals following the surgery. […] Twenty (20) days post-surgery, when tumor size was palpable, mice were ranked by tumor size and semi-randomly divided into four groups of equal distribution in tumor size. […]
MET and AXL levels were quantified by measuring fluorescent staining intensity over a line drawn radially from the tumor edge towards the tumor core. […] Regions with morphology characteristic of stroma or necrosis were generally avoided during quantification. Peak intensities along the line were confirmed by visual inspection as corresponding to cell membranes, and were quantified and indexed according to the distance from the tumor edge.

ADAM17 = ADAM17 dimerization (s-EGS cross-linking, western blot); assay type: cell-based; conditions: 3 h; MDA-MB231, MDA-MB157, BT549
Experimental: For each condition, two confluent 15 cm plates of cells were serum-starved for 4 h, treated with inhibitor for 3 h, rinsed with 4° C. PBS, incubated with 0.5 mg/ml sulfo-EGS (Pierce) for 30 min., and lysed in 1% NP40 buffer. Lysates were clarified, precleared with agarose resin, incubated with protein A/G resin (Pierce) and anti-ADAM17 antibody (R&D Systems Duo-set) overnight, washed, and then boiled in denaturing lysis buffer. Methods roughly follow previously described protocols (Miller, M. A., Meyer, A. S., Beste, M. T., Lasisi, Z., Reddy, S., Jeng, K. W., Chen, C. H., Han, J., Isaacson, K., Griffith, L. G. et al. (2013). ADAM-10 and -17 regulate endometriotic cell migration via concerted ligand and receptor shedding feedback on kinase signaling, Proc Natl Acad Sci USA 110, E2074-E2083; Xu, P., Liu, J., Sakaki-Yumoto, M., and Derynck, R. (2012). TACE activation by MAPK-mediated regulation of cell surface dimerization and TIMP3 association, Sci Signal 5, ra34).

[4] = test system: supernatant TIMP-1 and -3; experiment: Antibody microarray analysis of MDA-MB231 supernatant; assay type: cell-based; conditions: 24 h; MDAMB231; Ab-microarray
Experimental: MDA-MB231 cells were plated in 10 cm plates at 70% confluency, treated the following day with either DMSO or PD325901, and supernatant was collected 24 hours (h) later. Using L-1000 RayBio (Norcross Ga.) microarrays, supernatant was processed according to manufacturer instructions. Two biological replicate samples were analyzed for the control and MEKi conditions, with one sample undiluted and the other diluted 1:5 in growth media. Each array contains duplicate antibody spots, and so a total of n=4 replicates was used to determine significant changes in supernatant proteins. Only proteins measured more than four standard deviations above background for at least one condition were included in the analysis. Gene set enrichment analysis was performed as previously described using gene ontology (GO) gene sets (Subramanian, A. et al., Gene set enrichment analysis: a knowledge-based approach for interpreting genome-wide expression profiles. Proc Natl Acad Sci USA 102, 15545-15550 (2005)). […] The other top gene-sets were “intrinsic to membrane”, “integral to membrane”, “receptor activity”, and “intrinsic to plasma membrane”. The highest enrichment score in PD325901-treated cells was for “hematopoietin interferon class-D200 domain cytokine receptor binding” comprising 10 non-transmembrane proteins, with a corresponding p-value of 0.003.

LOX-IMVI cells = experiment: Xenograft mouse model of melanoma; set-up: species or system mice; conditions: in vivo
Experimental: For the xenograft melanoma experiment, 7 week old female athymic nude mice (Taconic) were injected with 1×10^6 LOX-IMVI cells in 1:1 Matrigel:HBSS subcutaneously in each flank (Yang, D., et al. “RasGRP3, a Ras activator, contributes to signaling and the tumorigenic phenotype in human melanoma.” Oncogene 30, no. 45: 4590-4600 (2011)). 7 days post-cell injection, tumors were measured by calipers and mice were ranked by tumor size and semi-randomly divided into 6 groups of equal distribution in tumor size, with 10 mice per group. […]
Tumor volumes was measured two to three times a week, estimated using the spherical tumor volume formula V=4/3πr^3, where r is averaged from 4 caliper measurements performed by two blinded researchers. […] For metastasis quantification, the numbers of metastases were counted in paraffin-embedded, H&E-stained sections, by a blinded researcher. Upon sacrifice, blood was collected via cardiac puncture into a heparinized syringe, immediately centrifuged at 2000×g for 20 min, and plasma fraction was stored at −80° C. for later quantification of receptor levels by ELISA and bead-based immunoassay.

CNC(=O)c1cc(Oc2ccc(NC(=O)Nc3ccc(Cl)c(C(F)(F)F)c3)cc2)ccn1 [sorafenib]
efficacy of combination treatment with MAPK and RTK inhibitors (cell count) [1]: effective

S=C(NCc1ccc2c(c1)OCO2)N1CCN(c2ncnc3c2oc2ccccc23)CC1 [MP470, amuvatinib]
efficacy of combination treatment with MAPK and RTK inhibitors (cell count) [1]: efficacious

N#CC(=C(/N)Sc1ccccc1N)/C(C#N)=C(\N)Sc1ccccc1N [U0126]
total AXL pY (AXL pY): increases | supernatant accumulation of sheddase substrates (sheddase substrates; 24 h, each dot a different cell line, ELISA): reduces supernatant accumulation of sheddase substrates | supernatant levels of multiple sheddase substrates (AREG, HBEGF, TGFα, TNFR1, AXL, MET, HER2, HER4) (sheddase substrates; MDA-MB231 cells): consistently reduce supernatant levels of multiple sheddase substrates | surface AXL (surface AXL): increase surface AXL | IC30 value averaged across the panel of cell lines (panel of cell lines): ~20 µM

COc1cc2c(Oc3ccc(NC(=O)C4(C(=O)Nc5ccc(F)cc5)CC4)cc3F)ccnc2cc1OCCCN1CCOCC1 [foretinib]
efficacy of combination treatment with MAPK and RTK inhibitors (cell count) [1]: efficacious

CNC(=O)[C@H](Cc1ccccc1)NC(=O)[C@H](CC(C)C)[C@H](CSc1cccs1)C(=O)NO [BB94]
total AXL pY (AXL pY): increases | supernatant RTK accumulation (sheddase substrates; 24 h): reduced supernatant RTK accumulation | mitotic index (mitotic index): increases mitotic index | phosphosignaling (p-JNK; MDAMB231): increases phosphosignaling in an AXL-dependent manner | AXL association with MET and HER2 [2]: increases | Loewe synergy (interaction term α) of PD325901 and R428 (MDAMB-231): reduced synergy | Loewe synergy (interaction term α) of trametinib and R428 [3]: reduced synergy

O=C(NOC[C@H](O)CO)c1ccc(F)c(F)c1Nc1ccc(I)cc1F [PD325901]
supernatant RTK accumulation (sheddase substrates; 24 h): reduced supernatant RTK accumulation | AXL and MET ectodomain immunostaining near the tumor edge (MDA-MB231-LM2 cells): up-regulation of AXL, and MET to a lesser degree | surface AXL (surface AXL): increase surface AXL | IC30 value averaged across the panel of cell lines (panel of cell lines): ~7 µM | ADAM17 homodimerization (ADAM17): increased ADAM17 dimerization | supernatant TIMP-1 and -3 [4]: decreases supernatant TIMP-1 and -3

Nc1nc(Nc2ccc3c(c2)CC[C@@H](N2CCCC2)CC3)nn1-c1cc2c(nn1)-c1ccccc1CCC2 [R428]
overall survival (LOX-IMVI cells): no significant effect on overall survival | MPi-evoked p-JNK increase on co-treatment (p-JNK; MDA-MB231, co-treatment with BB94): eliminated | IC30 value averaged across the panel of cell lines (panel of cell lines): ~0.2 µM

Reference: patent US10028958B2, “Methods of treating cancer with a combination of selected MEK1/2 and AXL inhibitors” (Massachusetts Institute of Technology, priority 2014, dated 2018)
